Results taken from patent US8409618B2, “Odor-reducing quinone compounds” (Kimberly-Clark Worldwide, Inc., priority 2002, dated 2013).

Legend:
Set-up in all cases: species or system human
[1] = Urine odor and secondary odor panel ranking, dye powders in urine, 8 millimolar (Example 7); settings: for Average Urine Odor Ranking (with statistical corrections), Avg. Score: ignoring statistical anomalies; for Secondary Odor Ranking: scale 1 to 5, 5 extremely unpleasant, individual panelists' scores
Procedure: (§1) Qualitative odor reduction was also assessed against common odors, such as garlic and urine. Specifically, panelists assessed odorant-containing jars by carefully unscrewing, and then raising the lid of each jar in a controlled manner, such that the odor was not diluted by the ambient air. The jars were wrapped and coded to ensure that the sample identity was unknown.
The effectiveness of various dyes in reducing urine odor was compared. […] Human female urine was initially collected and pooled by a nurse on staff at Kimberly-Clark Corporation. The pooled urine was added to mason jars in 50-milliliter aliquots using an automated pipette aid. Powders of the aforementioned dyes (commercially available from Sigma-Aldrich Chemical Co., Inc. of St. Louis, Mo. and Noveon Hilton Davis, Inc. of Cincinnati, Ohio) were weighed and placed into the mason jars containing 50 milliliters of urine so that the final concentration of the dye powder was 8 millimolar (equivalent to 0.5 wt. %). The mason jars were placed in an incubator overnight at 37° C.
To aid in the assessment of the dyes, the mason jars were divided into two groups for a morning assessment, and the best of both groups were compared in an afternoon assessment (after a total of 24 hours). In addition to ranking the jars from least to most malodorous (on a scale from 1 to 7, with 7 being the most malodors), panelists were also asked to judge whether there were secondary (non-urine) odors present and, if so, the extent that the secondary odors were unpleasant (on a scale from 1 to 5, with 5 being extremely unpleasant).
In this assessment, panelists were given instructions to rank the least malodorous jar as “1” and the most malodorous jar as “10,” remaining free to rank the other jars between 2-9.

[2] = Urine odor panel ranking, dye-coated Poise pads without SN-AK (Example 8); settings: for Secondary Odor Ranking: scale of 1-5; for Average Urine Odor Ranking, Avg. Score / overall urine odor control performance (panel): final pooled assessment; for urine odor reduction (panel), assessment within set: overnight 37° C.; for overall urine odor control performance (panel): top-sheet coating
Procedure: as §1
Specifically, Acid Green 25, Acid Green 41, Acid Blue 129, and D&C Green No. 5 were tested. Powders of the aforementioned dyes (commercially available from Sigma-Aldrich Chemical Co., Inc. of St. Louis, Mo. and Noveon Hilton Davis, Inc. of Cincinnati, Ohio) were dissolved in water so that the concentration of the dye was 8 millimolar (equivalent to 0.5 wt. %). Samples of tissue wrap were created by cutting 9″×6″ sheets from a roll of tissue (1 ply white cellulose wrap sheet having a basis weight of 16.6 grams per square meter) were weighed, oven-dried overnight at 90° C., and weighed again the next day to calculate the amount of residual water in each wrap. The wraps were then dipped into a respective dye solution and hung to dry overnight, after which they were weighed again. The treated wraps were then rinsed in deionized water to remove any unbound dye and hung again to dry overnight. After weighing the treated wraps, they were once again oven-dried overnight at 90° C. and weighed to determine the dry add-on percentages ([…]). The add-on percentage for each sample was approximately 1.6 wt. %.
Two different sets of Poise® pads (commercially available from Kimberly-Clark Corp.) were tested. The first set of dye-coated tissue wraps (without SN-AK) was inserted around the pledgette area of the Poise® pads. The Poise® pads were cut open and the tissue wrap surrounding the pledgette carefully removed and replaced with dye-coated tissue wrap. The second set of dye-coated tissue wraps (without SN-AK) used dye coatings on the top of the pad (rather than inside). These pads were constructed by spreading the solution over the top of each pad. To prevent the superabsorbent area of the pad from soaking up the solution, the pads were cut open prior to coating and a layer of plastic wrap was placed between the top layer of the pad and the superabsorbent core. A pad that was cut open, but coated only with water on top, was used as a control. All pads were dried at room temperature overnight before placing them in mason jars for testing. For control purposes, a Poise® pad was also tested that was cut open, but retained its original tissue wrap. In addition, Serenity® Night & Day™ incontinence pads, which are commercially available from SCA Incontinence Care of Eddystone, Pa. and said to employ OdaSorb Plus™ to reduce odor, were also used for comparison.
Fresh human female urine was then pooled, and 50-milliliter aliquots were applied to the pads using a pipette. The mason jars were placed in a 37° C. incubator overnight for assessment the next day. […] Panelists were again asked to rank any secondary odors for unpleasantness on a scale of 1-5.

[3] = Urine odor panel ranking, dye powders in urine, 8 millimolar (Example 5); settings: 8 millimolar dye in urine
Procedure: as §1, with “unknown. The effectiveness of various quinone dyes in reducing urine odor was compared. Human female urine was initially collected and pooled by a nurse on staff at Kimberly-Clark Corporation.” for “unknown.”

[4] = First Grouping, morning assessment, 8 millimolar, 7 most malodorous
[5] = First Grouping, scale 1 to 7, 7 most malodorous
[6] = Second Grouping, morning assessment, 8 millimolar, higher = more malodorous
[7] = After 24 Hours, top performers of both groupings, 1 least, 10 most malodorous
[8] = after 24 hours, top performers of both groupings
[9] = after 24 hours, top performers, 1 least, 10 most malodorous
[10] = 1st set (tissue-wrap coating), After 30 Hours
[11] = 2nd set (top-sheet coating), After 30 Hours
[12] = first set of pads (dye-coated tissue wrap around pledgette)
[13] = second set of pads (dye coating on top of pad)
[14] = After 6 Hours, 10 most, 1 least malodorous
[15] = After 24 Hours, 10 most, 1 least malodorous

In the case of “1,2 naphthaquinone-2-sulfonic acid potassium salt”, the “Urine Odor Ranking (number of panelists): ranking 2” value (“Urine Odor Ranking … ranking 2” below) [1, 4] is reported as 1 number of panelists, the “Urine Odor Ranking (number of panelists): ranking 3” value (from here on “Urine Odor Ranking … ranking 3”) [1, 4] is reported as 2 number of panelists and the “Urine Odor Ranking (number of panelists): ranking 4” value (“Urine Odor Ranking … ranking 4” for short) [1, 4] is reported as 1 number of panelists. The “Urine Odor Ranking (number of panelists): ranking 7” value (“Urine Odor Ranking … ranking 7” for short) [1, 4] was 1 number of panelists, the “Average Urine Odor Ranking, Avg. Score” value [1, 5] was 3.8 and the “secondary (non-urine) odor (panel)” value ([1]; first grouping) was “an unpleasant secondary smell was found to be present”. The “urine odor reduction (panel)” value ([1]; first grouping) was “effectively reduced urine odor”.
With `O=C1C=C(S(=O)(=O)[O-])C(=O)c2ccccc21.[K+]` [1,4 Naphthaquinone, 1,4 naphthaquinone-2-sulfonic acid potassium salt] the “Average Urine Odor Ranking, Avg. Score” value ([1]; Second Grouping) was 1.8, the “secondary (non-urine) odor (panel)” value ([1]; Second Grouping) was “unpleasant secondary odor” and the “Urine Odor Ranking (number of panelists): ranking 1” value [1, 6] was 2 number of panelists. The “Urine Odor Ranking … ranking 2” value [1, 6] was 2 number of panelists and the “Urine Odor Ranking … ranking 3” value [1, 6] was 1 number of panelists.
For `Nc1cc(S(=O)(=O)[O-])c(O)c2c1C(=O)c1c(O)c(S(=O)(=O)[O-])cc(N)c1C2=O.[Na+].[Na+]` [Acid Blue 45], the “Average Urine Odor Ranking, Avg. Score” value ([1]; Second Grouping) was 3.4, the “Urine Odor Ranking … ranking 2” value [1, 6] was 1 number of panelists and the “Urine Odor Ranking … ranking 3” value [1, 6] was 2 number of panelists. The “Urine Odor Ranking … ranking 4” value [1, 6] was 1 number of panelists and the “Urine Odor Ranking (number of panelists): ranking 5” value (“Urine Odor Ranking … ranking 5” for short) [1, 6] was 1 number of panelists.
With `Cc1ccc(Nc2ccc(Nc3ccc(C)cc3S(=O)(=O)[O-])c3c2C(=O)c2ccccc2C3=O)c(S(=O)(=O)[O-])c1.[Na+].[Na+]` [Acid Green 25] the “Urine Odor Ranking (number of panelists): ranking 1” value [1, 7] was 3 number of panelists, the “Urine Odor Ranking … ranking 2” value [1, 7] was 1 number of panelists and the “Urine Odor Ranking (number of panelists): ranking 10” value [1, 7] was 1 number of panelists. The “Urine Odor Ranking (number of panelists): ranking 1” value [1, 4] was 3 number of panelists, the “Urine Odor Ranking … ranking 2” value [1, 4] was 1 number of panelists and the “Urine Odor Ranking (number of panelists): ranking 6” value [1, 4] was 1 number of panelists. For the same molecule, the “Average Urine Odor Ranking, Avg. Score” value [1, 5] was 2.2, the “Average Urine Odor Ranking, Avg. Score” value ([1]; Second Grouping) was 4.4 and the “urine odor reduction (panel)” value [1, 8] was “achieved the best odor reduction”. For the same molecule, the “Average Urine Odor Ranking, Avg. Score” value [1, 9] was 3.0, the “Average Urine Odor Ranking (with statistical corrections), Avg. Score” value ([1]; after 24 hours, top performers) was 1.3 and the “secondary (non-urine) odor (panel)” value ([1]; first grouping) was “not found to be unpleasant by most panelists”. The “urine odor reduction (panel)” value ([1]; first grouping) was “functioned effectively to reduce odor”, the “Urine Odor Ranking … ranking 3” value [2, 10] was 1 number of panelists and the “Urine Odor Ranking … ranking 4” value [2, 10] was 1 number of panelists. The “Urine Odor Ranking … ranking 5” value [2, 10] was 1 number of panelists, the “Urine Odor Ranking (number of panelists): ranking 6” value [2, 10] was 1 number of panelists and the “Secondary Odor Ranking” value [2, 10] was 4. The “Average Urine Odor Ranking, Avg. Score” value ([2]; 1st set (tissue-wrap coating)) was 4.50, the “Urine Odor Ranking (number of panelists): ranking 1” value [2, 11] was 3 number of panelists and the “Urine Odor Ranking … ranking 7” value [2, 11] was 1 number of panelists. The “Average Urine Odor Ranking, Avg. Score” value ([2]; 2nd set (top-sheet coating)) was 2.50, the “urine odor reduction (panel), assessment within set” value [2, 12] was “performed best for the first set of pads” and the “urine odor reduction (panel), assessment within set” value [2, 13] was “performed best for the second set of pads”. The “overall urine odor control performance (panel)” value [2] was “best performer overall”.
With `CCCCc1ccc(Nc2ccc(Nc3ccc(CCCC)cc3S(=O)(=O)[O-])c3c2C(=O)c2ccccc2C3=O)c(S(=O)(=O)[O-])c1.[Na+].[Na+]` [Acid Green 27] the “urine malodor reduction (panel)” value ([3]; 6 and 24 hours) was “functioned effectively in reducing urine malodor”, the “Avg. Ranking (odor)” value [3, 14] was 4.4 and the “Ranking (number of panelists): ranking 4” value [3, 14] was 3 number of panelists. For the same molecule, the “Ranking (number of panelists): ranking 5” value [3, 14] was 2 number of panelists, the “Avg. Ranking (odor)” value [3, 15] was 4.5 and the “Ranking (number of panelists): ranking 1” value [3, 15] was 1 number of panelists. The “Ranking (number of panelists): ranking 3” value [3, 15] was 2 number of panelists, the “Ranking (number of panelists): ranking 7” value [3, 15] was 3 number of panelists and the “Urine Odor Ranking … ranking 2” value [1, 7] was 1 number of panelists. The “Urine Odor Ranking (number of panelists): ranking 8” value [1, 7] was 2 number of panelists, the “Urine Odor Ranking (number of panelists): ranking 9” value [1, 7] was 1 number of panelists and the “Urine Odor Ranking (number of panelists): ranking 10” value [1, 7] was 1 number of panelists. For the same molecule, the “Secondary Odor Ranking” value ([1]; After 24 Hours) was 4, the “Average Urine Odor Ranking, Avg. Score” value ([1]; Second Grouping) was 3.6 and the “Urine Odor Ranking … ranking 2” value [1, 6] was 2 number of panelists. For the same molecule, the “Urine Odor Ranking … ranking 4” value [1, 6] was 1 number of panelists, the “Urine Odor Ranking … ranking 5” value [1, 6] was 2 number of panelists and the “Secondary Odor Ranking” value ([1]; Second Grouping) was 2. The “Average Urine Odor Ranking, Avg. Score” value [1, 9] was 6.4 and the “Average Urine Odor Ranking (with statistical corrections), Avg. Score” value ([1]; after 24 hours, top performers) was 8.8.
For `Cc1ccc(Nc2ccc(Nc3ccc(C)cc3S(=O)(=O)[O-])c3c2C(=O)c2c(O)ccc(O)c2C3=O)c(S(=O)(=O)[O-])c1.[Na+].[Na+]` [Acid Green 41], the “Urine Odor Ranking (number of panelists): ranking 1” value [1, 7] was 1 number of panelists, the “Urine Odor Ranking … ranking 2” value [1, 7] was 2 number of panelists and the “Urine Odor Ranking … ranking 3” value [1, 7] was 1 number of panelists. The “Urine Odor Ranking … ranking 7” value [1, 7] was 1 number of panelists, the “Urine Odor Ranking (number of panelists): ranking 1” value [1, 4] was 1 number of panelists and the “Urine Odor Ranking … ranking 2” value [1, 4] was 2 number of panelists. The “Urine Odor Ranking … ranking 3” value [1, 4] was 1 number of panelists, the “Urine Odor Ranking … ranking 4” value [1, 4] was 1 number of panelists and the “Secondary Odor Ranking” value ([1]; First Grouping) was 1. For the same molecule, the “Average Urine Odor Ranking, Avg. Score” value [1, 5] was 2.4, the “urine odor reduction (panel)” value [1, 8] was “achieved the best odor reduction” and the “Average Urine Odor Ranking, Avg. Score” value [1, 9] was 3.0. The “Average Urine Odor Ranking (with statistical corrections), Avg. Score” value ([1]; after 24 hours, top performers) was 2.0, the “urine odor reduction (panel)” value ([1]; first grouping) was “functioned effectively to reduce odor” and the “Average Urine Odor Ranking, Avg. Score” value ([2]; 1st set (tissue-wrap coating)) was 4.50. The “Urine Odor Ranking … ranking 2” value [2, 11] was 2 number of panelists, the “Urine Odor Ranking … ranking 3” value [2, 11] was 1 number of panelists and the “Urine Odor Ranking … ranking 4” value [2, 11] was 1 number of panelists. The “Secondary Odor Ranking” value [2, 11] was 1, the “Average Urine Odor Ranking, Avg. Score” value ([2]; 2nd set (top-sheet coating)) was 2.75 and the “urine odor reduction (panel), assessment within set” value [2, 12] was “performed best for the first set of pads”. The “urine odor reduction (panel), assessment within set” value [2, 13] was “performed best for the second set of pads” and the “overall urine odor control performance (panel)” value [2] was “best performer overall, followed by Acid Green 41”.
In the case of `CCN(Cc1cccc(S(=O)(=O)[O-])c1)c1ccc(C(=C2C=CC(=[N+](CC)Cc3cccc(S(=O)(=O)[O-])c3)C=C2)c2ccccc2S(=O)(=O)[O-])cc1.[Na+].[Na+]` [FD&C Blue No. 1, reference compound], the “Urine Odor Ranking … ranking 4” value [1, 4] is reported as 1 number of panelists, the “Urine Odor Ranking … ranking 5” value [1, 4] is reported as 4 number of panelists and the “Secondary Odor Ranking” value ([1]; First Grouping) is reported as 3. For the same molecule, the “Average Urine Odor Ranking, Avg. Score” value [1, 5] was 4.8.
